Experimental data: ChEMBL document CHEMBL1131542, “A potent dipeptide inhibitor of dipeptidyl peptidase IV” (Bioorg Med Chem Lett, 1998)
Square brackets hold non-standard residues; d marks the D form. Peptide text beside a SMILES is read from it. Tic = O=C(O)[C@@H]1Cc2ccccc2CN1

Each molecule was assayed against Dipeptidyl peptidase 4 (Homo sapiens, UniProt P27487) (assay: Percent inhibition against Dipeptidyl peptidase IV (DPP IV) at a concentration of 1 uM).
Chain of Dipeptidyl peptidase 4 (P27487 whole entry, looked up): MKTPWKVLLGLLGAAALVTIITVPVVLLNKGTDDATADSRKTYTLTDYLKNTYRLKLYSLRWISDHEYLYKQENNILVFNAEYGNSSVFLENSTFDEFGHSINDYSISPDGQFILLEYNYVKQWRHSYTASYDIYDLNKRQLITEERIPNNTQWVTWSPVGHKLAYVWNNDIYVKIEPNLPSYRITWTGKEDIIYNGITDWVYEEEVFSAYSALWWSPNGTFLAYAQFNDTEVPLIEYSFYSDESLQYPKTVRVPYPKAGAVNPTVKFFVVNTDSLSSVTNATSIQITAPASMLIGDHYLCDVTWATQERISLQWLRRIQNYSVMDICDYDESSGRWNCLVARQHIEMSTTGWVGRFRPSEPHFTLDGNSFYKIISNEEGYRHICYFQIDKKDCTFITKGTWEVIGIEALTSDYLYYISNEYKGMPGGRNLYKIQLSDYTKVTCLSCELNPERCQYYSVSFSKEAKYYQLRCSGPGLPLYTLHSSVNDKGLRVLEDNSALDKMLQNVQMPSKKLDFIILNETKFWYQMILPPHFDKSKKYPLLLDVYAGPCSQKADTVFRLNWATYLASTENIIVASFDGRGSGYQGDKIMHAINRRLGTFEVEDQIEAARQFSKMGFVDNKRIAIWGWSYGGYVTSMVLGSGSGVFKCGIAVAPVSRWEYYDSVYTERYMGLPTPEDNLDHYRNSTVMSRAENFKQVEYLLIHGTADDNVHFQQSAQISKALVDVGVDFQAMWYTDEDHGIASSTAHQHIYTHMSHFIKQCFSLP

Compound	inhibition [%]
CC[C@H](C)[C@H](NC(=O)[C@H](Cc1c[nH]cn1)NC(=O)CNC(=O)[C@H](CCC(=O)O)NC(=O)[C@H](CCC(N)=O)NC(=O)[C@H](CC(=O)O)NC(=O)[C@H](CC(N)=O)NC(=O)[C@H](CCCN=C(N)N)NC(=O)[C@H](C)NC(=O)[C@@H]1Cc2ccccc2CN1C(=O)[C@@H](N)Cc1ccc(O)cc1)C(=O)N[C@@H](CC(C)C)C(=O)N[C@@H](CCCCN)C(=O)N[C@@H](CCSC)C(=O)N[C@@H](Cc1ccccc1)C(=O)N1CCC[C@H]1C(=O)N[C@@H](CO)C(=O)N[C@H](C(=O)N[C@@H](Cc1c[nH]c2ccccc12)C(=O)N[C@@H](Cc1ccc(O)cc1)C(=O)N[C@H](C(=O)O)C(C)C)[C@@H](C)O (H-Y[Tic]ARNDQEGHILKMFPSTWYV-OH)	12
CC[C@H](C)[C@H](NC(=O)[C@H](Cc1c[nH]cn1)NC(=O)CNC(=O)[C@H](CCC(=O)O)NC(=O)[C@H](CCC(N)=O)NC(=O)[C@H](CC(=O)O)NC(=O)[C@H](CC(N)=O)NC(=O)[C@H](CCCN=C(N)N)NC(=O)[C@H](C)NC(=O)[C@@H]1Cc2ccccc2CN1C(=O)[C@H](C)N)C(=O)N[C@@H](CC(C)C)C(=O)N[C@@H](CCCCN)C(=O)N[C@@H](CCSC)C(=O)N[C@@H](Cc1ccccc1)C(=O)N1CCC[C@H]1C(=O)N[C@@H](CO)C(=O)N[C@H](C(=O)N[C@@H](Cc1c[nH]c2ccccc12)C(=O)N[C@@H](Cc1ccc(O)cc1)C(=O)N[C@H](C(=O)O)C(C)C)[C@@H](C)O (H-A[Tic]ARNDQEGHILKMFPSTWYV-OH)	1
CC[C@H](C)[C@H](NC(=O)[C@H](Cc1c[nH]cn1)NC(=O)CNC(=O)[C@H](CCC(=O)O)NC(=O)[C@H](CCC(N)=O)NC(=O)[C@H](CC(=O)O)NC(=O)[C@H](CC(N)=O)NC(=O)[C@H](CCCN=C(N)N)NC(=O)[C@H](C)NC(=O)[C@@H]1Cc2ccccc2CN1C(=O)[C@@H](N)CCCN=C(N)N)C(=O)N[C@@H](CC(C)C)C(=O)N[C@@H](CCCCN)C(=O)N[C@@H](CCSC)C(=O)N[C@@H](Cc1ccccc1)C(=O)N1CCC[C@H]1C(=O)N[C@@H](CO)C(=O)N[C@H](C(=O)N[C@@H](Cc1c[nH]c2ccccc12)C(=O)N[C@@H](Cc1ccc(O)cc1)C(=O)N[C@H](C(=O)O)C(C)C)[C@@H](C)O (H-R[Tic]ARNDQEGHILKMFPSTWYV-OH)	10
CC[C@H](C)[C@H](NC(=O)[C@H](Cc1c[nH]cn1)NC(=O)CNC(=O)[C@H](CCC(=O)O)NC(=O)[C@H](CCC(N)=O)NC(=O)[C@H](CC(=O)O)NC(=O)[C@H](CC(N)=O)NC(=O)[C@H](CCCN=C(N)N)NC(=O)[C@H](C)NC(=O)[C@@H]1Cc2ccccc2CN1C(=O)[C@@H](N)CCC(=O)O)C(=O)N[C@@H](CC(C)C)C(=O)N[C@@H](CCCCN)C(=O)N[C@@H](CCSC)C(=O)N[C@@H](Cc1ccccc1)C(=O)N1CCC[C@H]1C(=O)N[C@@H](CO)C(=O)N[C@H](C(=O)N[C@@H](Cc1c[nH]c2ccccc12)C(=O)N[C@@H](Cc1ccc(O)cc1)C(=O)N[C@H](C(=O)O)C(C)C)[C@@H](C)O (H-E[Tic]ARNDQEGHILKMFPSTWYV-OH)	4
CC[C@H](C)[C@H](NC(=O)[C@H](Cc1c[nH]cn1)NC(=O)CNC(=O)[C@H](CCC(=O)O)NC(=O)[C@H](CCC(N)=O)NC(=O)[C@H](CC(=O)O)NC(=O)[C@H](CC(N)=O)NC(=O)[C@H](CCCN=C(N)N)NC(=O)[C@H](C)NC(=O)[C@@H]1Cc2ccccc2CN1C(=O)[C@@H](N)CCC(N)=O)C(=O)N[C@@H](CC(C)C)C(=O)N[C@@H](CCCCN)C(=O)N[C@@H](CCSC)C(=O)N[C@@H](Cc1ccccc1)C(=O)N1CCC[C@H]1C(=O)N[C@@H](CO)C(=O)N[C@H](C(=O)N[C@@H](Cc1c[nH]c2ccccc12)C(=O)N[C@@H](Cc1ccc(O)cc1)C(=O)N[C@H](C(=O)O)C(C)C)[C@@H](C)O (H-Q[Tic]ARNDQEGHILKMFPSTWYV-OH)	4
CC[C@H](C)[C@H](NC(=O)[C@H](Cc1c[nH]cn1)NC(=O)CNC(=O)[C@H](CCC(=O)O)NC(=O)[C@H](CCC(N)=O)NC(=O)[C@H](CC(=O)O)NC(=O)[C@H](CC(N)=O)NC(=O)[C@H](CCCN=C(N)N)NC(=O)[C@H](C)NC(=O)[C@@H]1Cc2ccccc2CN1C(=O)[C@@H](N)CCSC)C(=O)N[C@@H](CC(C)C)C(=O)N[C@@H](CCCCN)C(=O)N[C@@H](CCSC)C(=O)N[C@@H](Cc1ccccc1)C(=O)N1CCC[C@H]1C(=O)N[C@@H](CO)C(=O)N[C@H](C(=O)N[C@@H](Cc1c[nH]c2ccccc12)C(=O)N[C@@H](Cc1ccc(O)cc1)C(=O)N[C@H](C(=O)O)C(C)C)[C@@H](C)O (H-M[Tic]ARNDQEGHILKMFPSTWYV-OH)	6
CC[C@H](C)[C@H](NC(=O)[C@H](Cc1c[nH]cn1)NC(=O)CNC(=O)[C@H](CCC(=O)O)NC(=O)[C@H](CCC(N)=O)NC(=O)[C@H](CC(=O)O)NC(=O)[C@H](CC(N)=O)NC(=O)[C@H](CCCN=C(N)N)NC(=O)[C@H](C)NC(=O)[C@@H]1Cc2ccccc2CN1C(=O)[C@@H](N)CC(N)=O)C(=O)N[C@@H](CC(C)C)C(=O)N[C@@H](CCCCN)C(=O)N[C@@H](CCSC)C(=O)N[C@@H](Cc1ccccc1)C(=O)N1CCC[C@H]1C(=O)N[C@@H](CO)C(=O)N[C@H](C(=O)N[C@@H](Cc1c[nH]c2ccccc12)C(=O)N[C@@H](Cc1ccc(O)cc1)C(=O)N[C@H](C(=O)O)C(C)C)[C@@H](C)O (H-N[Tic]ARNDQEGHILKMFPSTWYV-OH)	9
CC[C@H](C)[C@H](NC(=O)[C@H](Cc1c[nH]cn1)NC(=O)CNC(=O)[C@H](CCC(=O)O)NC(=O)[C@H](CCC(N)=O)NC(=O)[C@H](CC(=O)O)NC(=O)[C@H](CC(N)=O)NC(=O)[C@H](CCCN=C(N)N)NC(=O)[C@H](C)NC(=O)[C@@H]1Cc2ccccc2CN1C(=O)[C@@H](N)Cc1ccccc1)C(=O)N[C@@H](CC(C)C)C(=O)N[C@@H](CCCCN)C(=O)N[C@@H](CCSC)C(=O)N[C@@H](Cc1ccccc1)C(=O)N1CCC[C@H]1C(=O)N[C@@H](CO)C(=O)N[C@H](C(=O)N[C@@H](Cc1c[nH]c2ccccc12)C(=O)N[C@@H](Cc1ccc(O)cc1)C(=O)N[C@H](C(=O)O)C(C)C)[C@@H](C)O (H-F[Tic]ARNDQEGHILKMFPSTWYV-OH)	4
CC[C@H](C)[C@H](NC(=O)[C@H](Cc1c[nH]cn1)NC(=O)CNC(=O)[C@H](CCC(=O)O)NC(=O)[C@H](CCC(N)=O)NC(=O)[C@H](CC(=O)O)NC(=O)[C@H](CC(N)=O)NC(=O)[C@H](CCCN=C(N)N)NC(=O)[C@H](C)NC(=O)[C@@H]1Cc2ccccc2CN1C(=O)[C@@H](N)CCCCN)C(=O)N[C@@H](CC(C)C)C(=O)N[C@@H](CCCCN)C(=O)N[C@@H](CCSC)C(=O)N[C@@H](Cc1ccccc1)C(=O)N1CCC[C@H]1C(=O)N[C@@H](CO)C(=O)N[C@H](C(=O)N[C@@H](Cc1c[nH]c2ccccc12)C(=O)N[C@@H](Cc1ccc(O)cc1)C(=O)N[C@H](C(=O)O)C(C)C)[C@@H](C)O (H-K[Tic]ARNDQEGHILKMFPSTWYV-OH)	7
CC[C@H](C)[C@H](NC(=O)[C@H](Cc1c[nH]cn1)NC(=O)CNC(=O)[C@H](CCC(=O)O)NC(=O)[C@H](CCC(N)=O)NC(=O)[C@H](CC(=O)O)NC(=O)[C@H](CC(N)=O)NC(=O)[C@H](CCCN=C(N)N)NC(=O)[C@H](C)NC(=O)[C@@H]1Cc2ccccc2CN1C(=O)[C@@H](N)CC(=O)O)C(=O)N[C@@H](CC(C)C)C(=O)N[C@@H](CCCCN)C(=O)N[C@@H](CCSC)C(=O)N[C@@H](Cc1ccccc1)C(=O)N1CCC[C@H]1C(=O)N[C@@H](CO)C(=O)N[C@H](C(=O)N[C@@H](Cc1c[nH]c2ccccc12)C(=O)N[C@@H](Cc1ccc(O)cc1)C(=O)N[C@H](C(=O)O)C(C)C)[C@@H](C)O (H-D[Tic]ARNDQEGHILKMFPSTWYV-OH)	8
